Source: ChEMBL document CHEMBL3832541, “DailyMed|setid=33ddfdb1-b4bc-464d-a186-49c4b156279f | DOXORUBICIN HYDROCHLORIDE- doxorubicin hydrochloride injection, solution|Actavis Pharma, Inc”
Where “and” joins values, the source holds several entries; their conditions need not be identical. Identical values can stand only once.

Experiments:
Format in all cases: ADME, organism-based
[1] = (§1) Evaluation of pharmacokinetic parameters for Doxorubicin hydrochloride following single intravenous administration of Doxorubicin hydrochloride solution to patients with various types of tumors.; details: human, dosed compound id 8, dosed compound name DOXORUBICIN HYDROCHLORIDE, regimen Single dose, tissue Plasma, read-out: Protein binding (converted)
Homo sapiens [2] = experiment: as §1; details: in vivo, iv, dosed compound id 8, dosed compound name DOXORUBICIN HYDROCHLORIDE, regimen Single dose, tissue Plasma
Homo sapiens [3] = experiment: Evaluation of pharmacokinetic parameters for Doxorubicin hydrochloride following multiple intravenous administration of Doxorubicin hydrochloride solution to children, adolescents and adults subjects; details: in vivo, dose 10 to 75 mg/m2, dosed compound id 8, dosed compound name DOXORUBICIN HYDROCHLORIDE, gender male and female, regimen Multiple dose, tissue Plasma

`COc1cccc2c1C(=O)c1c(O)c3c(c(O)c1C2=O)C[C@@](O)(C(=O)CO)C[C@@H]3O[C@H]1C[C@H](N)[C@H](O)[C@H](C)O1.Cl` [DOXORUBICIN HYDROCHLORIDE] gave a fraction unbound [1] of 0.25, a CL (Homo sapiens [2]; gender female) of 433 mL/min/m2 and a t1/2-terminal (Homo sapiens [2]; gender female) of 35 h. The CL (Homo sapiens [2]; gender male) was 1088 mL/min/m2, the t1/2-terminal (Homo sapiens [2]; gender male) was 54 h and the t1/2-distribution (Homo sapiens [2]) was 5 min. For the same molecule, the t1/2-terminal (Homo sapiens [2]) was 20 to 48 h and the CL (Homo sapiens [3]) was 1443 mL/min/m2 and 1540 mL/min/m2 and 813 mL/min/m2.
